Test results reported in paper PMC10535219, “Discovery and Potential Utility of a Novel Non-Invasive Ocular Delivery Platform” (Pharmaceutics, 2023).
Like-named read-outs stand apart in the source and are kept apart here.

How the values were obtained:
[1] = Biodisposition of JV-DE1 and JV-MD2 delivered via NIODP (periorbital skin) in non-human primates; type: in vivo, cynomolgus monkeys; conditions: for Cmax / concentration at 24 h / concentration at 3 h / concentration at 6 h / concentration at 0.5 h: cynomolgus, cynomolgus monkey
Procedure: All experiments were performed at Medicilon. […] A pen brush was used to dose each formulation with three to four circular motions for even distribution. The doses of the test articles were selected based on their solubility/concentration with the maximum deliverable volume on the periorbital skin of the animals. The administered dose was calculated by the weight difference of the pen brush before and after administration. Animals were restrained from eye rubbing in restraint chairs for 2 h after dosing, with access to food and drink. A blood sample was collected from one of the study animals at pre-dosing. For every time point of 0.5, 3, 6, and 24 h post-dose, one animal was euthanized and the ocular tissues (upper eyelid, cornea, retina, and vitreous humor) of both eyes were collected. Plasma samples were collected before each euthanization.
For the convenience of tissue processing and sample extraction, only upper eyelids were collected to represent the entirety of the periorbital tissue. Ocular tissues were homogenized by adding a 9-fold volume of 50% methanol/H2O per gram of tissue. For the LC-MS/MS sample preparation, a 50 μL aliquot of plasma, aqueous humor, vitreous humor, or tissue homogenate was thoroughly mixed with a 250 μL extraction solution of CHCl3/EtOH (1:1); then, a 210 μL supernatant of the samples was transferred to a 96-well plate after centrifugation. The samples were evaporated in nitrogen gas (N2) until dried. Each sample was redissolved in 200 μL MeOH, of which 2 µL was injected for the LC-MS/MS analysis.
The LC system was the same as that described in Section 2. The MS analysis was performed using a Triple Quad 5500 with an ESI ion source, and the data acquisition and control system were Analyst 1.6.3 software from Applied Biosystems/MDS Sciex.
The LC/MS conditions for JV-DE1 are described in Supplementary Table S2. The LC conditions were as follows: ACQUITY UPLC ® BEH C18 1.7 μm, 2.1 mm × 50 mm; the mobile phase Column A, 0.1% formic acid in water; and Column B, 0.1% formic acid in acetonitrile. The flow rate was 0.6 ml/min, the column temperature was 50 °C, and the injection volume was 2 µL. The MS conditions were as follows: scan type, positive MRM; ion source, turbo spray; ionization model, ESI; nebulizer gas 1, 55 psi; gas 2, 55 psi; curtain gas, 40 psi; CAD, 10; ionspray voltage, 5500 V; and temperature, 550 °C.
The LC/MS conditions for JV-MD2 (DHA) are described in Supplementary Table S3. The LC conditions were as follows: ACQUITY UPLC® BEH C18 1.7 μm, 2.1 mm × 50 mm; the mobile phase Column A, […] NH4AC in H2O; and Column B, CAN. The flow rate was 0.5 mL/min, the column temperature was 40 °C, and the injection volume was 4 µL. The MS conditions were as follows: scan type, negative MRM; ion source, turbo spray; ionization model, ESI; nebulizer gas 1, 55 psi; gas 2, 55 psi; curtain gas, 40 psi; CAD, 9; ionspray voltage, 5500 V; and temperature, 550 °C.

human IP receptor = target: human IP receptor; set-up: method as in PMID 16331286; conditions: cited from earlier work
human PAF receptor = target: human PAF receptor; set-up: method as in PMID 16331286; conditions: cited from earlier work
[2] = JV-DE1, monkey, NIODP OD, 159.3 μg/eye, 24 h
[3] = JV-DE1, monkey, NIODP OD, 160.6 μg/eye, 3 h
[4] = JV-DE1, monkey, NIODP OD, 162.2 μg/eye, 6 h
[5] = JV-DE1, monkey, NIODP OD, 179.1 μg/eye, 0.5 h

Drug in plasma ([1]; JV-DE1 0.53% w/w, monkey, NIODP periorbital skin OD, 159.3 μg/eye, 24 h, LLOQ 0.0001 µg/mL): BLQ
% Administered Dose, Cornea [1, 2]: 0.0326%
% Administered Dose, Eyelid/periorbital skin [1, 2]: 0.7501%
% Administered Dose, Retina [1, 2]: 0.0002%
% Administered Dose, Vitreous humor [1, 2]: 0.0018%
% Administered Dose, Cornea [1, 3]: 0.3430%
% Administered Dose, Eyelid/periorbital skin [1, 3]: 1.4956%
% Administered Dose, Retina [1, 3]: 0.0004%
% Administered Dose, Vitreous humor [1, 3]: 0.0029%
% Administered Dose, Cornea [1, 4]: 0.5900%
% Administered Dose, Eyelid/periorbital skin [1, 4]: 0.3477%
% Administered Dose, Retina [1, 4]: 0.0005%
% Administered Dose, Vitreous humor [1, 4]: 0.0031%
% Administered Dose, Cornea [1, 5]: 0.1921%
% Administered Dose, Eyelid/periorbital skin [1, 5]: 0.6370%
% Administered Dose, Retina [1, 5]: 0.0004%
% Administered Dose, Vitreous humor [1, 5]: 0.0047%
plasma concentrations ([1]; JV-DE1, monkey, NIODP about 165.3 µg/eye OD, all time points, LLOQ 0.0001 µg/mL): ≤ 0.3 ng/mL
maximum delivery efficiency in the retina ([1]; JV-DE1, monkey, via NIODP): 0.0005%
decrease of maximum retinal delivery efficiency, NIODP vs eye drop ([1]; JV-DE1, monkeys (NIODP) vs rabbits (eye drop), not head-to-head): about 10 fold
Cmax ([1]; cornea, topical or ocular, 165.3 ug, JV-DE1, monkey, NIODP about 165.3 µg/eye OD, read-out: Cmax in cornea): 9300 ng/g
concentration at 24 h ([1]; cornea, topical, JV-DE1, monkey, NIODP OD, 159.3 μg/eye, 24 h, read-out: Drug in OD Tissues, Cornea): 1620 ng/g
concentration at 3 h ([1]; cornea, topical, JV-DE1, monkey, NIODP OD, 160.6 μg/eye, 3 h, read-out: Drug in OD Tissues, Cornea): 16700 ng/g
concentration at 6 h ([1]; cornea, topical, JV-DE1, monkey, NIODP OD, 162.2 μg/eye, 6 h, read-out: Drug in OD Tissues, Cornea): 23900 ng/g
concentration at 0.5 h ([1]; cornea, topical, JV-DE1, monkey, NIODP OD, 179.1 μg/eye, 0.5 h, read-out: Drug in OD Tissues, Cornea): 9300 ng/g
concentration at 24 h ([1]; eyelid/periorbital skin (upper eyelid), topical, JV-DE1, monkey, NIODP OD, 159.3 μg/eye, 24 h, read-out: Drug in OD Tissues, Eyelid/periorbital skin): 11600 ng/g
concentration at 3 h ([1]; eyelid/periorbital skin (upper eyelid), topical, JV-DE1, monkey, NIODP OD, 160.6 μg/eye, 3 h, read-out: Drug in OD Tissues, Eyelid/periorbital skin): 32500 ng/g
concentration at 6 h ([1]; eyelid/periorbital skin (upper eyelid), topical, JV-DE1, monkey, NIODP OD, 162.2 μg/eye, 6 h, read-out: Drug in OD Tissues, Eyelid/periorbital skin): 7950 ng/g
concentration at 0.5 h ([1]; eyelid/periorbital skin (upper eyelid), topical, JV-DE1, monkey, NIODP OD, 179.1 μg/eye, 0.5 h, read-out: Drug in OD Tissues, Eyelid/periorbital skin): 26500 ng/g
Cmax ([1]; eyelid/periorbital skin, topical or ocular, 165.3 ug, JV-DE1, monkey, NIODP about 165.3 µg/eye OD, read-out: Cmax in eyelid/periorbital skin): 26500 ng/g
concentration at 3 h ([1]; plasma, topical, JV-DE1 0.53% w/w, monkey, NIODP periorbital skin OD, 160.6 μg/eye, 3 h, read-out: Drug in plasma): 0.2 ng/mL
concentration at 6 h ([1]; plasma, topical, JV-DE1 0.53% w/w, monkey, NIODP periorbital skin OD, 162.2 μg/eye, 6 h, read-out: Drug in plasma): 0.3 ng/mL
concentration at 0.5 h ([1]; plasma, topical, JV-DE1 0.53% w/w, monkey, NIODP periorbital skin OD, 179.1 μg/eye, 0.5 h, read-out: Drug in plasma): 0.1 ng/mL
Cmax ([1]; retina, topical or ocular, 165.3 ug, JV-DE1, monkey, NIODP about 165.3 µg/eye OD, read-out: Cmax in retina): 45.5 ng/g
Cmax ([1]; retina, topical, 165.3 µg per eye, JV-DE1, monkey, NIODP, read-out: retinal Cmax): 147 nM
concentration at 24 h ([1]; retina, topical, JV-DE1, monkey, NIODP OD, 159.3 μg/eye, 24 h, read-out: Drug in OD Tissues, Retina): 5.5 ng/g
concentration at 3 h ([1]; retina, topical, JV-DE1, monkey, NIODP OD, 160.6 μg/eye, 3 h, read-out: Drug in OD Tissues, Retina): 27.9 ng/g
concentration at 6 h ([1]; retina, topical, JV-DE1, monkey, NIODP OD, 162.2 μg/eye, 6 h, read-out: Drug in OD Tissues, Retina): 45.5 ng/g
concentration at 0.5 h ([1]; retina, topical, JV-DE1, monkey, NIODP OD, 179.1 μg/eye, 0.5 h, read-out: Drug in OD Tissues, Retina): 39.6 ng/g
Cmax ([1]; vitreous humor, topical or ocular, 165.3 ug, JV-DE1, monkey, NIODP about 165.3 µg/eye OD, read-out: Cmax in vitreous humor): 19 ng/mL
concentration at 24 h ([1]; vitreous humor, topical, JV-DE1, monkey, NIODP OD, 159.3 μg/eye, 24 h, read-out: Drug in OD Tissues, Vitreous humor): 19 ng/mL
concentration at 3 h ([1]; vitreous humor, topical, JV-DE1, monkey, NIODP OD, 160.6 μg/eye, 3 h, read-out: Drug in OD Tissues, Vitreous humor): 7.9 ng/mL
concentration at 6 h ([1]; vitreous humor, topical, JV-DE1, monkey, NIODP OD, 162.2 μg/eye, 6 h, read-out: Drug in OD Tissues, Vitreous humor): 3.9 ng/mL
concentration at 0.5 h ([1]; vitreous humor, topical, JV-DE1, monkey, NIODP OD, 179.1 μg/eye, 0.5 h, read-out: Drug in OD Tissues, Vitreous humor): 15.2 ng/mL
Structure (SMILES): CC(C)Oc1ccc(Cc2ccc(NC3=NCCN3)cc2)cc1 [JV-DE1, 4,5-dihydro-N-[4-[[4-(1-methylethoxy)phenyl]methyl]phenyl]-1H-imadazol-2-amine]
Ki (human IP receptor): 0.5 nM
pKi (human IP receptor): 9.3
pKi (human PAF receptor): 7.9
